# In paper PMC8111447 (Frontiers in Pharmacology, 2021):
# pIC50: −log10 of the molar value.
# Key:
# Experiment in all cases: Kinase panel (Eurofins)
# Format in all cases: biochemical
# Settings in all cases: n = 2; for inhibition at 1 µM: at 1 μmol/L; for pIC50: read-out: IC50 kinase inhibition
# BRK(h) = target: T1, BRK(h) (Homo sapiens, UniProt Q13882)
# T1 construct: purchased Eurofins
# From the text: (§1) These receptors have a methionine gatekeeper in their kinase domains, and are related to hyperglycemia in other clinical trials of EGFR TKI, such as Co-1686.
# FAK(h) = target: T2, FAK(h) (Homo sapiens, UniProt Q05397)
# T2 construct: purchased Eurofins
# From the text: as §1
# Flt3 (D835Y) (h) = target: T3, Flt3 (D835Y) (h) (Homo sapiens, UniProt P36888, D835Y)
# T3 construct: purchased Eurofins
# T3 sequence (P36888 27-993 D835Y): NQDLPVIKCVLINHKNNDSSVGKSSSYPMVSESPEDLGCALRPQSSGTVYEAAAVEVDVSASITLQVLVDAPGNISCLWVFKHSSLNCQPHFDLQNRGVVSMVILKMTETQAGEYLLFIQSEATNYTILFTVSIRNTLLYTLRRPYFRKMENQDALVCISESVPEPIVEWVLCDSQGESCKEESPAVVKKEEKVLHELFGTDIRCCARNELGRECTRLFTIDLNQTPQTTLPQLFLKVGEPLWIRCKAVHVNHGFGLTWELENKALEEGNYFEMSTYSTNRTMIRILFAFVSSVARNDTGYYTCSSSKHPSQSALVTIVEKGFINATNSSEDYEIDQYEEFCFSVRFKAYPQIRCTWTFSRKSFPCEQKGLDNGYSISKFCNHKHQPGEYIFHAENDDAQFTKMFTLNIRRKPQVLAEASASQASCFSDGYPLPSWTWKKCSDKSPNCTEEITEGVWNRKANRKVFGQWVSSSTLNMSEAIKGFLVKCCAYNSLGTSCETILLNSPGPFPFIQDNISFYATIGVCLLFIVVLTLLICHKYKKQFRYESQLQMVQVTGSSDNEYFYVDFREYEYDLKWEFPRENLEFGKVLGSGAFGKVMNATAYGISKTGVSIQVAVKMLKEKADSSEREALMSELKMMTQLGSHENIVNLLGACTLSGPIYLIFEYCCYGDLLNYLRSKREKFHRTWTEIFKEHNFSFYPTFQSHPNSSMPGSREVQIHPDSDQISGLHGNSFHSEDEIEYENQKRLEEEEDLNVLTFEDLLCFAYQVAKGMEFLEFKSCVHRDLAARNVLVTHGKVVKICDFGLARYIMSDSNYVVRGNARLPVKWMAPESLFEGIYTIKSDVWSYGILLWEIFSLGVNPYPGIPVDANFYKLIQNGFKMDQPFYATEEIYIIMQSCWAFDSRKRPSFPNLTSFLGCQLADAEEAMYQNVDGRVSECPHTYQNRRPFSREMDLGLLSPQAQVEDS
# From the text: as §1
# IGF-1R(h) = target: T4, IGF-1R(h) (Homo sapiens, UniProt P08069)
# T4 construct: purchased Eurofins
# T4 sequence (P08069 31-1367): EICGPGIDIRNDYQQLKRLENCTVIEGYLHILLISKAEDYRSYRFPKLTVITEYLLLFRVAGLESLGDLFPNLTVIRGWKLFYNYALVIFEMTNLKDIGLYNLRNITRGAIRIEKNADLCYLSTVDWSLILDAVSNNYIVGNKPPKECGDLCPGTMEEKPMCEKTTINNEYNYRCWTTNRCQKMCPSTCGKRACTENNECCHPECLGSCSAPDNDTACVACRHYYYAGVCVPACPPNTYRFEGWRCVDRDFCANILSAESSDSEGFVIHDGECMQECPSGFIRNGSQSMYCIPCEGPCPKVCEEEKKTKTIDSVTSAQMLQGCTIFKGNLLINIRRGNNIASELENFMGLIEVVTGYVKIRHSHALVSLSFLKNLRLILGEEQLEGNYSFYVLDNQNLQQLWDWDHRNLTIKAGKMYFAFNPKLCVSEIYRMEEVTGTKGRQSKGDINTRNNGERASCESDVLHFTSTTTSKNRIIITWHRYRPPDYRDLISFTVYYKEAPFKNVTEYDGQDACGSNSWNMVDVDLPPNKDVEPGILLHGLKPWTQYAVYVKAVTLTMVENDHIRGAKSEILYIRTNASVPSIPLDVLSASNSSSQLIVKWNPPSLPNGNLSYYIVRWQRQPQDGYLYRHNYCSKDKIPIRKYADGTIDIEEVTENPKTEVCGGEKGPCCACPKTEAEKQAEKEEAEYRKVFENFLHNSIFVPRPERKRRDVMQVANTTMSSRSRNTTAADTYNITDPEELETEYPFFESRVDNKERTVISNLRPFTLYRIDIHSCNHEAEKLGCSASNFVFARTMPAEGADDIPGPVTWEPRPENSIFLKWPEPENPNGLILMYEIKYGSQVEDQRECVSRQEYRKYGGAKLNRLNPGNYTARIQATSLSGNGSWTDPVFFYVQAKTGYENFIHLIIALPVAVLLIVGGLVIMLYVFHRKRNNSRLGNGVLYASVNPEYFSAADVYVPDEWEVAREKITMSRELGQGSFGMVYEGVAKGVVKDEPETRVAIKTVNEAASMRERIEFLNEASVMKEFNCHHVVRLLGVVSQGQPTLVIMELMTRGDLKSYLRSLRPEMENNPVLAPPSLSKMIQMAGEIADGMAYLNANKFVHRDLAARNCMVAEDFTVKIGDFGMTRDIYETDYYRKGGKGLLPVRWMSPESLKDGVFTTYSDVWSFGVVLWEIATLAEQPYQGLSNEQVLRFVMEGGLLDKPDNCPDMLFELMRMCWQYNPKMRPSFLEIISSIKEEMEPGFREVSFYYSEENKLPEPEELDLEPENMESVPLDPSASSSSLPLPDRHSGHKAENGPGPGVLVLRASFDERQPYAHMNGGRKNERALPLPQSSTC
# From the text: as §1
# IR(h), activated = target: T5, IR(h), activated (Homo sapiens, UniProt P06213)
# T5 construct: purchased Eurofins
# From the text: as §1
# LOK(h) = target: T6, LOK(h) (Homo sapiens, UniProt O94804)
# T6 construct: purchased Eurofins
# T6 sequence (O94804 whole entry): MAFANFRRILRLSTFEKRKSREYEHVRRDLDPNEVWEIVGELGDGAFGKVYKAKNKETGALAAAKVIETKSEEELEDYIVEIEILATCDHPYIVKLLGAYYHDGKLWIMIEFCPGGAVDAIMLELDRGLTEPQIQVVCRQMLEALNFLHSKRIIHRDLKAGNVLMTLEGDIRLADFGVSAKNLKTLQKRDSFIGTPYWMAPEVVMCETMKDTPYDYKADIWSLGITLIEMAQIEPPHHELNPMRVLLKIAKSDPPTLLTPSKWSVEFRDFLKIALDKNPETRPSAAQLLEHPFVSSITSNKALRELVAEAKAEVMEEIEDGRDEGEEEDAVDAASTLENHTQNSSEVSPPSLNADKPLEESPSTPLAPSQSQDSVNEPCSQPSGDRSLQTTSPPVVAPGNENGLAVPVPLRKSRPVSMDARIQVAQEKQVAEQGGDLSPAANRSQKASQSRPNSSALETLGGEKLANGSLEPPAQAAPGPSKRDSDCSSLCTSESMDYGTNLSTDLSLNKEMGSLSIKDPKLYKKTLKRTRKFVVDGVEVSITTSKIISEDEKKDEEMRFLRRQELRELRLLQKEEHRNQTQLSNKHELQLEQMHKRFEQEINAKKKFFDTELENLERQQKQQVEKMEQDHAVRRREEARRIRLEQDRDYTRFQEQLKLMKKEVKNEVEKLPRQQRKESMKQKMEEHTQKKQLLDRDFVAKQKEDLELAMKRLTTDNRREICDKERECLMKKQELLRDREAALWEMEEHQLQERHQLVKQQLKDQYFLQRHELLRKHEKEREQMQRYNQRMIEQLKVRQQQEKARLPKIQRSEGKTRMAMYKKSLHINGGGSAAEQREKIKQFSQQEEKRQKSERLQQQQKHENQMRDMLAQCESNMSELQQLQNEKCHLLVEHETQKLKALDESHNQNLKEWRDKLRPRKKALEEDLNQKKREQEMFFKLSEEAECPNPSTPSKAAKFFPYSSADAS
# From the text: as §1
# LRRK2(h) = target: T7, LRRK2(h) (Homo sapiens, UniProt Q5S007)
# T7 construct: purchased Eurofins
# From the text: as §1
# MYO3B(h) = target: T8, MYO3B(h) (Homo sapiens, UniProt Q8WXR4)
# T8 construct: purchased Eurofins
# T8 sequence (Q8WXR4 1-1341): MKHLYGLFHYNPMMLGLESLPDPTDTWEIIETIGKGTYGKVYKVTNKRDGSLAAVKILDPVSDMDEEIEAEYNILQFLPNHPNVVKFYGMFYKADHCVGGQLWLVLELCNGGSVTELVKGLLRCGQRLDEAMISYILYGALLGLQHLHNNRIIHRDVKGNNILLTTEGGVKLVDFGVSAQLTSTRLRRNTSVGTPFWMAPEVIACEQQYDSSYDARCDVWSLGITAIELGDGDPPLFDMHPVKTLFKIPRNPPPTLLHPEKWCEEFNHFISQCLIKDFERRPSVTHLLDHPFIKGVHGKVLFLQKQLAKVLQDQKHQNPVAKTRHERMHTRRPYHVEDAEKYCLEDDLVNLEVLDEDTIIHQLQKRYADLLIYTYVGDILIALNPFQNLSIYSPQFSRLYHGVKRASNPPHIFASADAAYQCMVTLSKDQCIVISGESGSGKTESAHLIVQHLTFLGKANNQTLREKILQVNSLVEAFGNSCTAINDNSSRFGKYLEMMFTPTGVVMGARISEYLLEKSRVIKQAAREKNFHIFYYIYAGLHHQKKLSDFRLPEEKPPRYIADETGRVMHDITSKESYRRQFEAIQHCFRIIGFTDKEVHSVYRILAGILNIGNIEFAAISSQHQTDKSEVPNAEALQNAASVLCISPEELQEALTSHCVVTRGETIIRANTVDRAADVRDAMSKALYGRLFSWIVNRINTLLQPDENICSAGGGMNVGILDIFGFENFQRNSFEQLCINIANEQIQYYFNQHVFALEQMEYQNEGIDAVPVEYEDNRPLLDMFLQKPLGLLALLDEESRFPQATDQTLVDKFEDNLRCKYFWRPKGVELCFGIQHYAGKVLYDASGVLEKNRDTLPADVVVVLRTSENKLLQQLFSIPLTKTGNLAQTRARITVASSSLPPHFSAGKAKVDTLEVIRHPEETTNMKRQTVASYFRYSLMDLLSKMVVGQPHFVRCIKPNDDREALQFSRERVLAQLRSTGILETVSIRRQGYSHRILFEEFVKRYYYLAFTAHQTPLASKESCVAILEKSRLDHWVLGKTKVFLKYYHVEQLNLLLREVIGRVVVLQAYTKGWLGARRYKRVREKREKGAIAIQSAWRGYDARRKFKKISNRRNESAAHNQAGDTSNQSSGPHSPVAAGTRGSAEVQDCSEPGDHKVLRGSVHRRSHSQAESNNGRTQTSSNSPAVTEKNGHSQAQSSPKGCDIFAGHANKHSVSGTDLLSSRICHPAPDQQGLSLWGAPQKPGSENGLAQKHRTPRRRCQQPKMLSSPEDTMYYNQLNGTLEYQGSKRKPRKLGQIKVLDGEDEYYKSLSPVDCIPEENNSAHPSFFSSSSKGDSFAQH
# From the text: as §1
# Pyk2(h) = target: T9, Pyk2(h) (Homo sapiens, UniProt Q14289)
# T9 construct: purchased Eurofins
# From the text: as §1
# Ros(h) = target: T10, Ros(h) (Homo sapiens, UniProt P08922)
# T10 construct: purchased Eurofins
# T10 sequence (P08922 28-2347): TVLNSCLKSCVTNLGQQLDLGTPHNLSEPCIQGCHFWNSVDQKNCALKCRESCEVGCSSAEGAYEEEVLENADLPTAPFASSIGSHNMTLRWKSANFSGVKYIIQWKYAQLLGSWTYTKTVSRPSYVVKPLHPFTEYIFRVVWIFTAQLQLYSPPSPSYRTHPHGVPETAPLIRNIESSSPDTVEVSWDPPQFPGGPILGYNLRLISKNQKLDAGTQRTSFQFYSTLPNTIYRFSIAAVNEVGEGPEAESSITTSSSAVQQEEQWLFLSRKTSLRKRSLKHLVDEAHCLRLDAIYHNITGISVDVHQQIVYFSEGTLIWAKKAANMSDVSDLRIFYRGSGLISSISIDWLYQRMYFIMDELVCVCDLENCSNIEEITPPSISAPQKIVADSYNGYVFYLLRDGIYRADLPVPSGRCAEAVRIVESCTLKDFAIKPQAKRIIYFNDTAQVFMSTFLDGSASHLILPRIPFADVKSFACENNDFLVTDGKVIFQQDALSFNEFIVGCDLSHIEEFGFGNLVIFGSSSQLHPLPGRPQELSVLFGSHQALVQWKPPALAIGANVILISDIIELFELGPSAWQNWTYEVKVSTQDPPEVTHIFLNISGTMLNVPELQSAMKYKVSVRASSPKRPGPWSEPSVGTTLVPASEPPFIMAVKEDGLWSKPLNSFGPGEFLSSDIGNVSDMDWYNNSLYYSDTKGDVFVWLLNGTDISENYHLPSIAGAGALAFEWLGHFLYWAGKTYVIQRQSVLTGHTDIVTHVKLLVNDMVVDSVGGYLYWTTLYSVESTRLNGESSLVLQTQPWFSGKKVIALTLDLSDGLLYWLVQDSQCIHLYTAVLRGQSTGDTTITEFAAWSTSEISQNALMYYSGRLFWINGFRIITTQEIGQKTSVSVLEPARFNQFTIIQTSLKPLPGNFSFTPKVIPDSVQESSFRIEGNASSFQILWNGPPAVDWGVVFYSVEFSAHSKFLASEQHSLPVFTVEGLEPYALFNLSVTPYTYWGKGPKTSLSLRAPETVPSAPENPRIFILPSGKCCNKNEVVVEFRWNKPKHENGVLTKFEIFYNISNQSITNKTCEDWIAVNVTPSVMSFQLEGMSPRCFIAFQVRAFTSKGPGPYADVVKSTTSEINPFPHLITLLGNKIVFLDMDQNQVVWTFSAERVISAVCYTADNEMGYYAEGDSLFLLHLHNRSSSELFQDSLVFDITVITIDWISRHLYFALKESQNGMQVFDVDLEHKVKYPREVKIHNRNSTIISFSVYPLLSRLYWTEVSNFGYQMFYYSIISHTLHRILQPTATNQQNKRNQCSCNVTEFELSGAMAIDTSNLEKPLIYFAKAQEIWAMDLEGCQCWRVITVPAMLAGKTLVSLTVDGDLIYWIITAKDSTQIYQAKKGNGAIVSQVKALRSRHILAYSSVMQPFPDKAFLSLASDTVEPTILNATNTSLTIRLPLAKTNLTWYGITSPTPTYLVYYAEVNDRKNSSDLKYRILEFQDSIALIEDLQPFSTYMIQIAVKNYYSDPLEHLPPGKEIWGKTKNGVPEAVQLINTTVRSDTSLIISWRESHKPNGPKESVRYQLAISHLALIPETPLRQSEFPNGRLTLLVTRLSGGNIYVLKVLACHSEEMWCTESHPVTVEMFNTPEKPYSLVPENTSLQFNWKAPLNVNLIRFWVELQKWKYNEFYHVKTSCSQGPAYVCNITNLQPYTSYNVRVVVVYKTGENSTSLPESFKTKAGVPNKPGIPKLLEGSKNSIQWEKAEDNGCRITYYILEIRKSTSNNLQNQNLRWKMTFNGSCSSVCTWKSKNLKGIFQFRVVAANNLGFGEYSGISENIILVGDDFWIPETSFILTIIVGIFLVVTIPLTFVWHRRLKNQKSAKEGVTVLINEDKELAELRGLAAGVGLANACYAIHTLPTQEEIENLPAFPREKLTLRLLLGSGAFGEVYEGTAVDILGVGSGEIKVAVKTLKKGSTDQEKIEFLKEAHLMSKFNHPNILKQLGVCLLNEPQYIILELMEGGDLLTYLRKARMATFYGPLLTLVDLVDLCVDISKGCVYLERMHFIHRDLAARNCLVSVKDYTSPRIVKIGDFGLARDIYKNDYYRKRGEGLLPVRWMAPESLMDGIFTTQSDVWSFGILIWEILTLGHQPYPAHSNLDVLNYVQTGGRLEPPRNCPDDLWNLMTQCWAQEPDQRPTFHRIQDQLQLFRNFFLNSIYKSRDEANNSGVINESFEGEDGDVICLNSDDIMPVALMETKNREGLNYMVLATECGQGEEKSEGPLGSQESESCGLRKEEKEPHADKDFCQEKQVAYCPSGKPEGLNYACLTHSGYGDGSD
# From the text: as §1
# T1 sequence (Q13882 whole entry): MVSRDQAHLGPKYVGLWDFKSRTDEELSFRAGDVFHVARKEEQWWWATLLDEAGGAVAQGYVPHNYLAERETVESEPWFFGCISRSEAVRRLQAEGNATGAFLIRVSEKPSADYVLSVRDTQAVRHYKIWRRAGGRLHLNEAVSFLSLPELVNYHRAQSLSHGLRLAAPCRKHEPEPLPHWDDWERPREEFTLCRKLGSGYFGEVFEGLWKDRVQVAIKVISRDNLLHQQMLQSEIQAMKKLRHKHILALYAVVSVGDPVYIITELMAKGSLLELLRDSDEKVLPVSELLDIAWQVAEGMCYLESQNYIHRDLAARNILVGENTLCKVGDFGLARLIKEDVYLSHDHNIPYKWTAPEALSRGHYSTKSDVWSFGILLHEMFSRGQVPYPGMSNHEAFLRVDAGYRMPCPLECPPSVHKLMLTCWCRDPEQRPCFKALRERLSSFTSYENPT
inhibition at 1 µM (BRK(h)),pIC50 (BRK(h)),inhibition at 1 µM (FAK(h)),pIC50 (FAK(h)),inhibition at 1 µM (Flt3 (D835Y) (h)),pIC50 (Flt3 (D835Y) (h)),inhibition at 1 µM (IGF-1R(h)),pIC50 (IGF-1R(h)),"inhibition at 1 µM (IR(h), activated)","pIC50 (IR(h), activated)",inhibition at 1 µM (LOK(h)),pIC50 (LOK(h)),inhibition at 1 µM (LRRK2(h)),pIC50 (LRRK2(h)),inhibition at 1 µM (MYO3B(h)),pIC50 (MYO3B(h)),inhibition at 1 µM (Pyk2(h)),pIC50 (Pyk2(h)),inhibition at 1 µM (Ros(h)),pIC50 (Ros(h)),SMILES
91%,7.10,87%,6.57,99%,7.39,70%,6.09,74%,6.49,72%,6.23,93%,6.92,67%,6.30,83%,6.64,98%,7.33,C=CC(=O)Nc1cc(Nc2nccc(-c3c4n(c5ccccc35)CCCC4)n2)c(OC)cc1N(C)CCNC [Imp3]
85%,7.21,68%,6.63,86%,7.11,38%,6.24,58%,6.62,24%,5.71,89%,7.09,58%,6.46,73%,6.64,96%,7.30,C=CC(=O)Nc1cc(Nc2nccc(-c3c4n(c5ccccc35)CCCC4)n2)c(OC)cc1N(C)CCN(C)C [SH-1028]
